Experimental findings from the supplement of paper PMC11061612 are described below.

For assay [1], the system named is BICR78 (Oral Cavity Carcinoma). In words: Bliss excess, mean over the matrix (fraction); higher = more synergy. A digest of the protocol: (§1)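 After 24 hours at 37°C and 5% CO2 in 1536-well plates, cells in DMEM/F12 or RPMI plus 10% FBS received two-drug dose matrices for 72 hours. Viability came from CellTiter-Glo 2.0 luminescence and was scaled as inhibition, anchored at 0 by vehicle wells and at 1 by blank wells. Combination Emax is taken as the second-highest inhibition in the matrix, and Bliss excess as the observed combination effect less EA + EB − EA·EB, with EA and EB the single-agent effects.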

Assay [2] relates to EKVX (Non-Small Cell Lung Carcinoma). The assay is described as above. The procedure, abridged:
as §1

Assay [3] concerns HCT-116 (Colorectal Carcinoma). Described as above. A digest of the protocol: as §1
In assay [4] the test system is JHH-6 (Hepatocellular Carcinoma). Described as above. A digest of the protocol: as §1
For assay [5], the system named is MES-SA (Other Solid Carcinomas). The description is as above. A digest of the protocol:
as §1

For assay [6], the system named is SK-LMS-1 (Other Solid Carcinomas). The description is as above. The procedure, abridged: as §1
For assay [7], the system named is 647-V (Bladder Carcinoma). Put plainly: combination Emax (second highest fraction inhibited in the dose matrix, 72 h); higher = more inhibition; extreme values may be limits of the assay. A digest of the protocol: as §1
Assay [8] relates to BICR78 (Oral Cavity Carcinoma). The description is as above. A digest of the protocol: as §1
Assay [9] has as its system DOK (Oral Cavity Carcinoma). The description is as above. A digest of the protocol:
as §1

The test system of assay [10] is ETK-1 (Biliary Tract Carcinoma). The description is as above. The procedure, abridged: as §1
Assay [11] deals with EW-22 (Ewing's Sarcoma). Described as above. A digest of the protocol: as §1
Assay [12] has as its system HCC38 (Breast Carcinoma). The description is as above. The procedure, abridged: as §1
Assay [13] deals with HLE (Hepatocellular Carcinoma). Described as above. The procedure, abridged: as §1
For assay [14], the system named is MES-SA (Other Solid Carcinomas). The assay is described as above. A digest of the protocol:
as §1

The test system of assay [15] is P31-FUJ (Acute Myeloid Leukemia). Described as above. The procedure, abridged: as §1
Assay [16] deals with SK-UT-1 (Other Solid Carcinomas). The assay is described as above. A digest of the protocol: as §1
The test system of assay [17] is SNG-M (Endometrial Carcinoma). Described as above. The procedure, abridged: as §1
Assay [18] has as its system TYK-nu (Ovarian Carcinoma). The description is as above. The procedure, abridged: as §1
Assay [19] has as its system WSU-DLCL2 (B-Cell Non-Hodgkin's Lymphoma). The assay is described as above. A digest of the protocol:
as §1

Assay [20] has as its system YT (Other Blood Carcinomas). Described as above. A digest of the protocol:
as §1
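Throughout, for Bliss excess, mean over the matrix: after 72 h of two-drug dosing.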

Regarding `Cc1c2c(nn1C)CSCc1cc(n(C)n1)CSc1cc(c3ccccc3c1)OCCCc1c(C(=O)O)n(C)c3c-2c(Cl)ccc13` [AZD5991] + C[C@@H]1COCCN1C2=NC(=NC(=C2)C3(CC3)[S@](=N)(=O)C)C4=C5C=CNC5=NC=C4 [AZD6738] (first compound max 1 µM, 7x7, partner max 10 µM), the Bliss excess in [1] is -0.0327; in assay [2], 0.0337; in [3] it was 0.0475; in assay [4], -0.079; in [5] it was 0.0653; in assay [6], -0.0471. The “combination Emax” value in [7] came to 0.92; in assay [8], 0.612; in assay [9], 0.633; in assay [10], 0.658; in assay [11] it was 0.921; in [12] it was 0.688. Also, the “combination Emax” value in assay [13] is 0.802; in [14] it was 0.762; in assay [15], 0.998; in assay [16] it was 0.801; in [17], 0.88; in assay [18] it was 0.74. In addition, the “combination Emax” value in assay [19] and in assay [20] was 1 in each case.
For the molecule `CN(CCO)CC[C@H](CSc1ccccc1)Nc1ccc(S(=O)(=O)NC(=O)c2ccc(N3CCC([C@@H](O)c4ccccc4-c4ccc(Cl)cc4)CC3)cc2)cc1S(=O)(=O)C(F)(F)F` [AZD4320] + Cn1cnc2c(F)c(Nc3ccc(Br)cc3Cl)c(C(=O)NOCCO)cc21 [Selumetinib] (first compound max 1 µM, 7x7, partner max 3 µM), the Bliss excess is 0.0362 in [1]; 0.0109 in [2]; -0.0232 in assay [3]; 0.0455 in assay [4]; 0.0404 in assay [5]; 0.0293 in [6]. For the same molecule, the “combination Emax” value in [7] was found to be 0.971; in [8], 0.508; in assay [9] it was 0.562; in assay [10], 0.3; in assay [11] it was 1; in assay [12], 0.907. The “combination Emax” value in assay [13] was found to be 0.504; in assay [14], 0.246; in assay [15] it was 0.901; in assay [16], 0.345; in assay [17], 0.526; in assay [18], 0.619. Also, the figures for the “combination Emax” value in [19] and in assay [20] were 0.959 and 0.737, respectively.
As to `Cc1c2c(nn1C)CSCc1cc(n(C)n1)CSc1cc(c3ccccc3c1)OCCCc1c(C(=O)O)n(C)c3c-2c(Cl)ccc13` [AZD5991] + CCN(CCO)CCCOc1ccc2c(Nc3cc(CC(=O)Nc4cccc(F)c4)[nH]n3)ncnc2c1 [AZD2811] (first compound max 1 µM, 7x7, partner max 1 µM), the Bliss excess in [1] is 0.0088; in [2], -0.0356; in assay [3], 0.0295; in assay [4], -0.0298; in assay [5], 0.138; in assay [6], -0.0538. In addition, the “combination Emax” value in [7] came to 0.834; in [8], 0.304; in assay [9] it was 0.883; in [10], 0.294; in [11] it was 0.88; in assay [12], 0.521. Also, the “combination Emax” value is 0.579 in assay [13]; 0.806 in [14]; 0.994 in assay [15]; 0.367 in assay [16]; 0.345 in assay [17]; 0.534 in assay [18]. The “combination Emax” value in assay [19] and in assay [20] was 1 throughout.
Consider `CN(CCO)CC[C@H](CSc1ccccc1)Nc1ccc(S(=O)(=O)NC(=O)c2ccc(N3CCC([C@@H](O)c4ccccc4-c4ccc(Cl)cc4)CC3)cc2)cc1S(=O)(=O)C(F)(F)F` [AZD4320] + C=CCn1c(=O)c2cnc(Nc3ccc(N4CCN(C)CC4)cc3)nc2n1-c1cccc(C(C)(C)O)n1 [AZD1775] (first compound max 1 µM, partner max 1 µM), for which the Bliss excess in [1] is 0.0149; in assay [2], -0.0382; in [3], -0.0294; in [4], -0.0095; in [5] it was -0.0017; in assay [6] it was 0.0447. Besides, the “combination Emax” value in assay [7] came out at 0.949; in [8] it was 0.304; in [9], 0.504; in [10], 0.618; in assay [11] it was 0.988; in assay [12] it was 0.903. Besides, the “combination Emax” value turned out to be 0.871 in assay [13]; 0.865 in assay [14]; 0.983 in assay [15]; 0.693 in assay [16]; 0.903 in assay [17]; 0.65 in [18]. The “combination Emax” value in [19] was 1; in assay [20], 0.88.
Take `C[C@@H]1COCCN1c1cc(C2([S@](C)(=N)=O)CC2)nc(-c2ccnc3[nH]ccc23)n1` [AZD6738] + O=C(c1cc(Cc2n[nH]c(=O)c3ccccc23)ccc1F)N1CCN(C(=O)C2CC2)CC1 [Olaparib] (first compound max 10 µM, 7x7, partner max 10 µM): the Bliss excess was -0.0431 in assay [1]; 0.0206 in assay [2]; 0.0928 in assay [3]; -0.0039 in [4]; -0.0519 in [5]; 0.0027 in assay [6]. Moreover, the “combination Emax” value is 0.61 in assay [7]; 0.615 in assay [8]; 0.369 in assay [9]; 0.678 in assay [10]; 0.942 in [11]; 0.611 in [12]. For the same molecule, the “combination Emax” value was 0.981 in [13]; 0.643 in assay [14]; 0.877 in assay [15]; 0.821 in assay [16]; 0.898 in [17]; 0.665 in assay [18]. Further, the “combination Emax” value stood at 0.92 in assay [19] and 0.75 in [20].
In the case of `COc1cccc2c1C(=O)c1c(O)c3c(c(O)c1C2=O)C[C@@](O)(C(=O)CO)C[C@@H]3O[C@H]1C[C@H](N)[C@H](O)[C@H](C)O1` [Doxorubicin] + Cc1cc2ncnn2cc1Nc1ncc2c(n1)n(C1CCOCC1)c(=O)n2C [AZD7648] (first compound max 1 µM, 7x7, partner max 10 µM), the Bliss excess in assay [1] amounted to 0.028; in assay [2] it was 0.0083; in assay [3], 0.0556; in assay [4] it was 0.0476; in assay [5], 0.0696; in assay [6], 0.0633. The “combination Emax” value in assay [7] amounted to 0.958; in assay [8], 0.748; in [9], 0.697; in [10], 0.562; in [11], 0.947; in [12] it was 0.555. Besides, the “combination Emax” value in assay [13] worked out at 0.812; in assay [14], 0.826; in [15] it was 0.995; in assay [16], 0.873; in assay [17] it was 0.767; in [18] it was 0.704. In addition, the entries for the “combination Emax” value in assay [19] and in [20] were 1 and 0.862, respectively.
Take `Cc1c2c(nn1C)CSCc1cc(n(C)n1)CSc1cc(c3ccccc3c1)OCCCc1c(C(=O)O)n(C)c3c-2c(Cl)ccc13` [AZD5991] + CN(C)CCCOc1ccc(-c2ccc3ncc4c(c3c2)n(C2CCOCC2)c(=O)n4C)cn1 [AZD0156] (first compound max 1 µM, 7x7, partner max 1 µM): the Bliss excess was 0.0199 in assay [1]; -0.0139 in assay [2]; 0.0431 in assay [3]; -0.0079 in [4]; 0.017 in [5]; -0.0645 in assay [6]. The “combination Emax” value in assay [7] turned out to be 0.878; in assay [8], 0.219; in assay [9], 0.331; in assay [10], 0.26; in assay [11] it was 0.512; in [12], 0.365. Also, the “combination Emax” value in [13] is 0.39; in [14] it was 0.384; in assay [15], 0.974; in [16], 0.245; in [17], 0.209; in assay [18], 0.397. For the same molecule, the “combination Emax” value in assay [19] and in assay [20] was 1 each time.
